Activity calls are given as the source filed them. The calls are words filed in the database; no cut-off is given here.
Key:
[1] = tested on: U-87 MG; experiment: Induction of apoptosis in human U-87 MG cells assessed as late apoptotic cells at 4 uM measured upto 24 hrs by Annexin V-FITC/PI staining based flow cytometry analysis (reference value: 0.54%); format: functional, U-87MG ATCC
[2] = target: T1, Focal adhesion kinase 1 (Homo sapiens, UniProt Q05397); experiment: Inhibition of FAK (unknown origin) at 10 nM relative to control
[3] = tested on: U-87 MG; experiment: Antiproliferative activity against human U-87 MG assessed as cell viability incubated for 48 hrs by MTT assay; format: functional, cell-based, U-87MG ATCC
[4] = tested on: U-87 MG; experiment: Inhibition of colony formation in human U-87 MG cells at 0.005 uM incubated for 14 days and subsequent media replacement with compound for every 3 days in presence of Chlorambucil by crystal violet staining based analysis; format: functional, cell-based; settings: U-87MG ATCC, time 14.0 day
[5] = tested on: U-87 MG; experiment: Induction of cell cycle arrest in human U-87 MG cells assessed as accumulation of cells at S phase at 8 uM by propidium Iodide staining based flow cytometry analysis (reference value: 9.59%); format: functional, U-87MG ATCC
[6] = tested on: U-87 MG; experiment: Induction of cell cycle arrest in human U-87 MG cells assessed as accumulation of cells at G2M phase at 2 uM by propidium Iodide staining based flow cytometry analysis (reference value: 9.73%); format: functional, U-87MG ATCC
[7] = tested on: U-87 MG; experiment: Induction of apoptosis in human U-87 MG cells assessed as late apoptotic cells at 8 uM measured upto 24 hrs by Annexin V-FITC/PI staining based flow cytometry analysis (reference value: 0.54%); format: functional, U-87MG ATCC
[8] = tested on: U-87 MG; experiment: Induction of apoptosis in human U-87 MG cells assessed as viable cells at 4 uM measured upto 24 hrs by Annexin V-FITC/PI staining based flow cytometry analysis (reference value: 98.4%); format: functional, U-87MG ATCC; settings: read-out: Activity
[9] = tested on: U-87 MG; experiment: Induction of apoptosis in human U-87 MG cells assessed as […] in cleaved caspase-3 level at 0.05 to 0.8 uM incubated for 24 hrs by Western blot analysis; format: functional, cell-based; settings: U-87MG ATCC, dose 0.05-0.8 µM
[10] = tested on: U-87 MG; experiment: Antiproliferative activity against human U-87 MG assessed as inhibition of cell growth at 0.005 uM by clonogenic assay relative to control; format: functional, U-87MG ATCC
[11] = tested on: U-87 MG; experiment: Induction of cell cycle arrest in human U-87 MG cells assessed as accumulation of cells at G0/G1 phase at 2 uM by propidium Iodide staining based flow cytometry analysis (reference value: 80.68%); format: functional, U-87MG ATCC
[12] = tested on: U-87 MG; experiment: Induction of cell cycle arrest in human U-87 MG cells assessed as accumulation of cells at […] at 2 uM by propidium Iodide staining based flow cytometry analysis (reference value: 1.67%); format: functional, U-87MG ATCC
[13] = tested on: U-87 MG; experiment: Induction of apoptosis in human U-87 MG cells assessed as early apoptotic cells at 8 uM measured upto 24 hrs by Annexin V-FITC/PI staining based flow cytometry analysis (reference value: 0.45%); format: functional, U-87MG ATCC
[14] = tested on: U-87 MG; experiment: Antiproliferative activity against human U-87 MG assessed as inhibition of cell growth at 0.025 to 0.1 uM by clonogenic assay relative to control; format: functional, U-87MG ATCC; settings: dose 0.025-0.1 µM
[15] = tested on: U-87 MG; experiment: Induction of apoptosis in human U-87 MG cells assessed as early apoptotic cells at 4 uM measured upto 24 hrs by Annexin V-FITC/PI staining based flow cytometry analysis (reference value: 0.45%); format: functional, U-87MG ATCC
[16] = tested on: U-87 MG; experiment: Inhibition of AKT phosphorylation in human U-87 MG cells at 0.05 to 0.4 uM incubated for 24 hrs by Western blot analysis; format: cell-based; settings: dose 0.05-0.4 µM
[17] = tested on: U-87 MG; experiment: Induction of apoptosis in human U-87 MG cells assessed as necrotic cells at 2 uM measured upto 24 hrs by Annexin V-FITC/PI staining based flow cytometry analysis (reference value: 0.62%); format: functional, U-87MG ATCC
[18] = tested on: U-87 MG; experiment: Antiproliferative activity against human U-87 MG assessed as inhibition of cell growth at 0.005 uM in presence of Chlorambucil by clonogenic assay relative to control; format: functional, U-87MG ATCC
[19] = Distribution coefficient, logD of compound in n-Octanol/water at pH 7.4; format: physicochemical
[20] = tested on: U-87 MG; experiment: Inhibition of cell migration in human U-87 MG cells assessed as […] in migration distance at 0.1 to 1 uM incubated for 24 to 48 hrs by wound healing assay; format: functional, cell-based; settings: U-87MG ATCC, dose 0.1-1 µM, time lower 24.0 hrs, time upper […]
[21] = tested on: U-87 MG; experiment: Induction of apoptosis in human U-87 MG cells assessed as viable cells at 8 uM measured upto 24 hrs by Annexin V-FITC/PI staining based flow cytometry analysis (reference value: 98.4%); format: functional, U-87MG ATCC; settings: read-out: Activity
[22] = tested on: U-87 MG; experiment: Induction of apoptosis in human U-87 MG cells assessed as necrotic cells at 8 uM measured upto 24 hrs by Annexin V-FITC/PI staining based flow cytometry analysis (reference value: 0.62%); format: functional, U-87MG ATCC
[23] = tested on: U-87 MG; experiment: Induction of cell cycle arrest in human U-87 MG cells assessed as accumulation of cells at […] at 4 uM by propidium Iodide staining based flow cytometry analysis (reference value: 1.67%); format: functional, U-87MG ATCC
[24] = tested on: U-87 MG; experiment: Inhibition of ERK1/2 phosphorylation in human U-87 MG cells at 0.05 to 0.4 uM incubated for 24 hrs by Western blot analysis; format: cell-based; settings: dose 0.05-0.4 µM
[25] = tested on: U-87 MG; experiment: Inhibition of cell migration in human U-87 MG cells assessed as […] at 0.1 to 1 uM by wound healing assay; format: functional, cell-based; settings: U-87MG ATCC, dose 0.1-1 µM, time lower 24.0 hrs, time upper […]
[26] = tested on: U-87 MG; experiment: Induction of apoptosis in human U-87 MG cells assessed as […] in Bcl-xL level at 0.05 to 0.8 uM incubated for 24 hrs by Western blot analysis; format: functional, cell-based; settings: U-87MG ATCC, dose 0.05-0.8 µM
[27] = tested on: U-87 MG; experiment: Induction of cell cycle arrest in human U-87 MG cells assessed as accumulation of cells at S phase at 2 uM by propidium Iodide staining based flow cytometry analysis (reference value: 9.59%); format: functional, U-87MG ATCC
[28] = target: T1, Focal adhesion kinase 1; experiment: Inhibition of FAK phosphorylation in human U-87 MG cells at 0.05 to 0.4 uM incubated for 24 hrs by Western blot analysis; format: cell-based; settings: dose 0.05-0.4 µM
[29] = tested on: U-251; experiment: Antiproliferative activity against human U-251 assessed as cell viability incubated for 48 hrs by MTT assay; format: functional, cell-based; settings: U-251, 48 h
[30] = tested on: U-87 MG; experiment: Induction of cell cycle arrest in human U-87 MG cells assessed as accumulation of cells at G2M phase at 4 uM by propidium Iodide staining based flow cytometry analysis (reference value: 9.73%); format: functional, U-87MG ATCC
[31] = tested on: U-87 MG; experiment: Induction of cell cycle arrest in human U-87 MG cells assessed as accumulation of cells at S phase at 4 uM by propidium Iodide staining based flow cytometry analysis (reference value: 9.59%); format: functional, U-87MG ATCC
[32] = tested on: U-87 MG; experiment: Induction of apoptosis in human U-87 MG cells assessed as late apoptotic cells at 2 uM measured upto 24 hrs by Annexin V-FITC/PI staining based flow cytometry analysis (reference value: 0.54%); format: functional, U-87MG ATCC
[33] = Cytotoxicity against human 2BS assessed as cell viability incubated for 48 hrs by MTT assay; format: toxicity, cell-based; settings: 2BS cells
[34] = tested on: U-87 MG; experiment: Induction of apoptosis in human U-87 MG cells assessed as viable cells at 2 uM measured upto 24 hrs by Annexin V-FITC/PI staining based flow cytometry analysis (reference value: 98.4%); format: functional, U-87MG ATCC; settings: read-out: Activity
[35] = tested on: U-87 MG; experiment: Inhibition of colony formation in human U-87 MG cells at 0.005 uM incubated for 14 days and subsequent media replacement with compound for every 3 days by crystal violet staining based analysis; format: functional, cell-based; settings: U-87MG ATCC, time 14.0 day
[36] = Cytotoxicity against human LO2 assessed as cell viability incubated for 48 hrs by MTT assay; format: toxicity, cell-based, L02; settings: LO2 cells
[37] = tested on: U-87 MG; experiment: Induction of cell cycle arrest in human U-87 MG cells assessed as accumulation of cells at G0/G1 phase at 8 uM by propidium Iodide staining based flow cytometry analysis (reference value: 80.68%); format: functional, U-87MG ATCC
[38] = tested on: U-87 MG; experiment: Induction of apoptosis in human U-87 MG cells assessed as necrotic cells at 4 uM measured upto 24 hrs by Annexin V-FITC/PI staining based flow cytometry analysis (reference value: 0.62%); format: functional, U-87MG ATCC
[39] = tested on: U-87 MG; experiment: Antiproliferative activity against human U-87 MG assessed as inhibition of cell growth at 0.025 to 0.1 uM in presence of Chlorambucil by clonogenic assay relative to control; format: functional, U-87MG ATCC; settings: dose 0.025-0.1 µM
[40] = tested on: U-87 MG; experiment: Induction of cell cycle arrest in human U-87 MG cells assessed as accumulation of cells at G2M phase at 8 uM by propidium Iodide staining based flow cytometry analysis (reference value: 9.73%); format: functional, U-87MG ATCC
[41] = tested on: U-87 MG; experiment: Induction of apoptosis in human U-87 MG cells assessed as early apoptotic cells at 2 uM measured upto 24 hrs by Annexin V-FITC/PI staining based flow cytometry analysis (reference value: 0.45%); format: functional, U-87MG ATCC
[42] = tested on: U-87 MG; experiment: Induction of cell cycle arrest in human U-87 MG cells assessed as accumulation of cells at G0/G1 phase at 4 uM by propidium Iodide staining based flow cytometry analysis (reference value: 80.68%); format: functional, U-87MG ATCC
[43] = tested on: U-87 MG; experiment: Induction of cell cycle arrest in human U-87 MG cells assessed as accumulation of cells at […] at 8 uM by propidium Iodide staining based flow cytometry analysis (reference value: 1.67%); format: functional, U-87MG ATCC
[44] = tested on: U-87 MG; experiment: Induction of DNA damage in human U-87 MG cells assessed as comet tail moment at 0.1 to 2 uM incubated for 2.5 to 3 hrs by comet assay; format: functional; settings: time 2.5-3 hrs
[45] = Toxicity in BALB/c mouse implanted with human U-87 MG cells assessed as spleen damage at 25 mg/kg, ip administered once daily for 15 days by H and E staining based analysis; format: organism-based; settings: in vivo, 360 h, time 15 day
[46] = tested on: U-87 MG; experiment: Antitumor activity against human U-87 MG cells xenografted in BALB/c mouse assessed as inhibition of tumor growth at 25 mg/kg, ip administered once daily for 15 days; format: functional, U-87MG ATCC; settings: 360 h, time 15 day, read-out: TGI
[47] = Toxicity in BALB/c mouse implanted with human U-87 MG cells assessed as lung damage at 25 mg/kg, ip administered once daily for 15 days by H and E staining based analysis; format: organism-based; settings: in vivo, 360 h, time 15 day

T1 sequence (Q05397 2-1052 limits assumed): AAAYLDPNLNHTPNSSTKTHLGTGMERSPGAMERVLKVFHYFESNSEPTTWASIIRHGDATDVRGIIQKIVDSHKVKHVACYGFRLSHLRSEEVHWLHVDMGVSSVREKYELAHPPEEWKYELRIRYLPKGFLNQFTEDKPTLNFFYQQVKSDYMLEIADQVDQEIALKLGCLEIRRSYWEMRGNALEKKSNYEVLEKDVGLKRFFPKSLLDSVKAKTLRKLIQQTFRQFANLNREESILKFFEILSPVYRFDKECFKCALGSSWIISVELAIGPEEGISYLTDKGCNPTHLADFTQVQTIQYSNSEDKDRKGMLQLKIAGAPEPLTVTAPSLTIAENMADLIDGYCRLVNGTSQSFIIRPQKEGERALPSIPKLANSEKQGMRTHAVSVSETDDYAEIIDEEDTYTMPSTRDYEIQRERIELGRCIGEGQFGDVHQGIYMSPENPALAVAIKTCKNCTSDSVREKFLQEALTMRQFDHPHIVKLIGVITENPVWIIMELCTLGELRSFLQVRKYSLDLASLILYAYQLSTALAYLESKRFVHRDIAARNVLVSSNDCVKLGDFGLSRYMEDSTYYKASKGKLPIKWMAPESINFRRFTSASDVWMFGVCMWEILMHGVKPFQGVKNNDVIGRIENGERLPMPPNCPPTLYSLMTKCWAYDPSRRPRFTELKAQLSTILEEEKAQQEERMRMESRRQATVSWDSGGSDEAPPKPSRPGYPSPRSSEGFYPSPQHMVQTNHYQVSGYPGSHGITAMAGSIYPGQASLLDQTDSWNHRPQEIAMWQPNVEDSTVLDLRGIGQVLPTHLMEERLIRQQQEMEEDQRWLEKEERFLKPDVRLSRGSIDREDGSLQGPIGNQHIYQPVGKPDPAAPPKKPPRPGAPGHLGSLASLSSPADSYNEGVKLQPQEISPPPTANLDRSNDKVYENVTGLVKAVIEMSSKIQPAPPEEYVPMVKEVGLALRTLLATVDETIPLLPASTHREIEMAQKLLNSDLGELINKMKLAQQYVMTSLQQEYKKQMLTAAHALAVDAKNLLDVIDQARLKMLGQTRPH

CNC(=O)c1ccccc1Nc1nc(Nc2ccc(N3CCOCC3)cc2OC)ncc1Cl
Activity [1]: 4.35%
inhibition [2]: 78.6%
IC50 [3]: 2.85 µM
inhibition [4]: inactive
Activity [5]: 3.66%
Activity [6]: 14.62%
Activity [7]: 12.3%
viability at 4 µM [8]: 78.2%
Activity [9]: Active
inhibition at 0.005 µM [10]: ~8%
Activity [11]: 72.55%
Activity [12]: 1.75%
Activity [13]: 26.2%
inhibition (INH) [14]: 60%
Activity [15]: 11%
inhibition [16]: inactive
Activity [17]: 3.64%
inhibition at 0.005 µM [18]: 12%
logD [19]: 3.49
inhibition [20]: Active
viability at 8 µM [21]: 61.2%
Activity [22]: 0.31%
Activity [23]: 1.81%
inhibition [24]: inactive
inhibition [25]: Time-dependent-effect
Activity [26]: Active
Activity [27]: 12.83%
inhibition [28]: inactive
IC50 [29]: 5.84 µM
Activity [30]: 23.91%
Activity [31]: 19.73%
Activity [32]: 9.29%
IC50 at 48 h [33]: 42.8 µM
viability at 2 µM [34]: 84.3%
inhibition [35]: inactive
IC50 at 48 h [36]: 4.14 µM
Activity [37]: 33.93%
Activity [38]: 6.39%
inhibition (INH) [39]: 61%
Activity [40]: 62.41%
Activity [41]: 2.78%
Activity [42]: 56.37%
Activity [43]: 1.84%
Activity ([44]; U-87MG ATCC): inactive

Cn1nnc2c(C(N)=O)ncn2c1=O [TEMOZOLOMIDE]
Activity [45]: Non-toxic
inhibition in vivo at 25 mg/kg [46]: 31.4%
Activity [47]: Non-toxic
Activity [44]: 11.6

— ChEMBL document CHEMBL6153079, “Discovery of noncovalent diaminopyrimidine-based Inhibitors for glioblastoma via a dual FAK/DNA targeting strategy” (Eur J Med Chem, 2025)
